Results as given in patent US9845310B2 (priority 2015, dated 2017).
Like-named read-outs stand apart in the source and are kept apart here.

How the values were obtained:
APJ = APJ (Homo sapiens (Human), UniProt P35414); assay: [35S]GTPγS binding assay on membranes from CHO cells stably expressing human APJ receptor; type: biochemical
Experimental: A GTPγS binding assay was performed on membranes prepared from CHO cells stably expressing human APJ receptor. The optimum experimental conditions for the concentrations of GDP, MgCl2, and NaCl in the assay buffer were initially determined. The assay was performed in assay buffer [20 mM HEPES, pH 7.5, 5 mM MgCl2, and 0.1% (w/v) BSA with 200 mM NaCl, 3 M GDP] and membranes expressing human APJ receptor/well along with WGA PS beads. The reaction was initiated by addition of 0.2 nM [^35S]GTPγS (Perkin Elmer Life and Analytical Sciences, Waltham USA) in the absence or presence of various ligands and incubated at RT for 90 min. Nonspecific binding was determined in the presence of 100 M GTPγS and was always less than 0.2% of total binding.

[1] = test system: naive Sprague Dawley rat hearts; settings: ex vivo isolated perfused rat heart, percent change over vehicle; for Isolated Heart Assay dP/dtmax(%): contractility; for Isolated Heart Assay dP/dtmin(%): relaxation (lusitropic)
[2] = read-out: Activity hAPJ SPA EC50 IP

Chain of APJ (P35414 whole entry, the tested form may be a part): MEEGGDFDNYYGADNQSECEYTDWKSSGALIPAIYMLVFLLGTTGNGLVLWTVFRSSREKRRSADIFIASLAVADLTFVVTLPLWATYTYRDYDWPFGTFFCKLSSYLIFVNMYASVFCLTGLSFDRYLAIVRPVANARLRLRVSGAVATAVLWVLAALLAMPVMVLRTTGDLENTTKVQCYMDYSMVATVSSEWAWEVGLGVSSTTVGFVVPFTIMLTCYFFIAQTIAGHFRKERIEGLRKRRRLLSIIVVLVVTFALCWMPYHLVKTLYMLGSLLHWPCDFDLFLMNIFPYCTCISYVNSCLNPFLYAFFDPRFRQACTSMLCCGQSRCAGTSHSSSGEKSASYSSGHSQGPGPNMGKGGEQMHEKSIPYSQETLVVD

Row | Structure (SMILES) | EC50 (APJ; [2]) | EC50 (APJ; Activity hAPJ SPA EC50 IP (μM)) | Isolated Heart Assay dP/dtmax(%) [1] | Isolated Heart Assay dP/dtmin(%) [1]
1 | COc1cccc(-c2nnc(NS(=O)(=O)C[C@@H](O)c3cn4ccccc4n3)n2-c2c(OC)cccc2OC)n1 (mixture of isomers) [Example 257.0, (S)-N-(4-(2,6-dimethoxyphenyl)-5-(6-methoxypyridin-2-yl)-4H-1,2,4-triazol-3-yl)-2-hydroxy-2-(imidazo[1,2-a]pyridin-2-yl)ethanesulfonamide and (R)-N-(4-(2,6-dimethoxyphenyl)-5-(6-methoxypyridin-2-yl)-4H-1,2,4-triazol-3-yl)-2-hydroxy-2-(imidazo[1,2-a]pyridin-2-yl)ethanesulfonamide] | 0.00073 µM | – | – | –
2 | COc1cccc(OC)c1-n1c(NS(=O)(=O)[C@@H]2CCCO[C@@H]2c2ncc(C)cn2)nnc1-c1cncc(C)c1 (single isomer, unassigned) [Example 646.0] | 0.053 µM | – | – | –
3 | COc1cccc(OC)c1-n1c(NS(=O)(=O)[C@H](C)[C@H](OC(C)C)c2cnc(C)cn2)nnc1-c1cccc(C)n1 (single isomer, unassigned) [Example 824.0, (1S,2S)-N-(4-(2,6-dimethoxyphenyl)-5-(6-methylpyridin-2-yl)-4H-1,2,4-triazol-3-yl)-1-isopropoxy-1-(5-methylpyrazin-2-yl)propane-2-sulfonamide or (1R,2R)-N-(4-(2,6-dimethoxyphenyl)-5-(6-methylpyridin-2-yl)-4H-1,2,4-triazol-3-yl)-1-isopropoxy-1-(5-methylpyrazin-2-yl)propane-2-sulfonamide] | – | 0.00047 µM | – | –
4 | COc1cccc(-c2nnc(NS(=O)(=O)C[C@H](O)c3ccc(F)cn3)n2-c2c(OC)cccc2OC)n1 (mixture of isomers) [Example 315.0, (2R)-N-(4-(2,6-dimethoxyphenyl)-5-(6-methoxy-2-pyridinyl)-4H-1,2,4-triazol-3-yl)-2-(5-fluoro-2-pyridinyl)-2-hydroxyethanesulfonamide and (2S)-N-(4-(2,6-dimethoxyphenyl)-5-(6-methoxy-2-pyridinyl)-4H-1,2,4-triazol-3-yl)-2-(5-fluoro-2-pyridinyl)-2-hydroxyethanesulfonamide] | – | 0.00032 µM | – | –
5 | CCNC(=O)c1cccc(-c2nnc(NS(=O)(=O)[C@@H](C)Cc3ncc(F)cn3)n2-c2c(OC)cccc2OC)n1 (mixture of isomers) [Example 228.0, 6-(4-(2,6-dimethoxyphenyl)-5-((((1S)-2-(5-fluoro-2-pyrimidinyl)-1-methylethyl)sulfonyl)amino)-4H-1,2,4-triazol-3-yl)-N-ethyl-2-pyridinecarboxamide and 6-(4-(2,6-dimethoxyphenyl)-5-((((1R)-2-(5-fluoro-2-pyrimidinyl)-1-methylethyl)sulfonyl)amino)-4H-1,2,4-triazol-3-yl)-N-ethyl-2-pyridinecarboxamide] | 0.0053 µM | – | – | –
6 | COc1cccc(OC)c1-n1c(NS(=O)(=O)[C@@H](C)Cc2ncc(F)cn2)nnc1-c1cccc(C)n1 (single isomer, unassigned) [Example 619.0, (S)-N-(4-(2,6-dimethoxyphenyl)-5-(6-methylpyridin-2-yl)-4H-1,2,4-triazol-3-yl)-1-(5-fluoropyrimidin-2-yl)propane-2-sulfonamide or (R)-N-(4-(2,6-dimethoxyphenyl)-5-(6-methylpyridin-2-yl)-4H-1,2,4-triazol-3-yl)-1-(5-fluoropyrimidin-2-yl)propane-2-sulfonamide] | – | 0.0015 µM | – | –
7 | CCO[C@@H](c1cnc(C)cn1)[C@@H](C)S(=O)(=O)Nc1nnc(-c2cccc(OC)n2)n1-c1c(OC)cccc1OC (single isomer, unassigned) [Example 589.0, (1S,2R)-N-(4-(2,6-dimethoxyphenyl)-5-(6-methoxy-2-pyridinyl)-4H-1,2,4-triazol-3-yl)-1-ethoxy-1-(5-methyl-2-pyrazinyl)-2-propanesulfonamide or (1R,2S)-N-(4-(2,6-dimethoxyphenyl)-5-(6-methoxy-2-pyridinyl)-4H-1,2,4-triazol-3-yl)-1-ethoxy-1-(5-methyl-2-pyrazinyl)-2-propanesulfonamide] | 0.02 µM | – | – | –
8 | COc1cccc(OC)c1-n1c(NS(=O)(=O)[C@@H](C)[C@H](C)c2ncc(F)cn2)nnc1-c1cccnc1 (single isomer, unassigned) [Example 183.0, (2R,3S)-N-(4-(2,6-dimethoxyphenyl)-5-(3-pyridinyl)-4H-1,2,4-triazol-3-yl)-3-(5-fluoro-2-pyrimidinyl)-2-butanesulfonamide or (2S,3R)-N-(4-(2,6-dimethoxyphenyl)-5-(3-pyridinyl)-4H-1,2,4-triazol-3-yl)-3-(5-fluoro-2-pyrimidinyl)-2-butanesulfonamide] | – | 0.06 µM | – | –
9 | COc1cccc(OC)c1-n1c(NS(=O)(=O)[C@H](C)[C@@H](OC)c2cnc(C)cn2)nnc1-c1cncc(C)c1 (single isomer, unassigned) [Example 571.0, (1S,2R)-N-(4-(2,6-dimethoxyphenyl)-5-(5-methyl-3-pyridinyl)-4H-1,2,4-triazol-3-yl)-1-methoxy-1-(5-methyl-2-pyrazinyl)-2-propanesulfonamide or (1R,2S)-N-(4-(2,6-dimethoxyphenyl)-5-(5-methyl-3-pyridinyl)-4H-1,2,4-triazol-3-yl)-1-methoxy-1-(5-methyl-2-pyrazinyl)-2-propanesulfonamide] | – | – | 13.3% | 18.8%
10 | COc1ncnc(OC)c1-n1c(NS(=O)(=O)[C@@H](C)[C@H](C)c2ncc(Cl)cn2)nnc1-c1cccnc1 [Example 709.0, (2S,3R)-3-(5-chloro-2-pyrimidinyl)-N-(4-(4,6-dimethoxy-5-pyrimidinyl)-5-(3-pyridinyl)-4H-1,2,4-triazol-3-yl)-2-butanesulfonamide] | – | – | 6.0% | 3.0%
11 | COc1cccc(-c2nnc(NS(=O)(=O)[C@@H](C)[C@H](C)c3ncc(Cl)cn3)n2-c2c(OC)ncnc2OC)n1 [Example 710.0, (2S,3R)-3-(5-chloro-2-pyrimidinyl)-N-(4-(4,6-dimethoxy-5-pyrimidinyl)-5-(6-methoxy-2-pyridinyl)-4H-1,2,4-triazol-3-yl)-2-butanesulfonamide] | – | – | 12.7% | 10.3%
12 | COc1cccc(OC)c1-n1c(NS(=O)(=O)[C@@H](C)[C@H](OC)c2ncc(F)cn2)nnc1-c1cccnc1 [Example 81.0, (1R,2S)-N-(4-(2,6-dimethoxyphenyl)-5-(3-pyridinyl)-4H-1,2,4-triazol-3-yl)-1-(5-fluoro-2-pyrimidinyl)-1-methoxy-2-propanesulfonamide] | – | – | 14.0% | 15.0%
13 | CCO[C@H](c1ncc(Cl)cn1)[C@H](C)S(=O)(=O)Nc1nnc(-c2cncc(C)c2)n1-c1c(OC)cccc1OC [Example 610.0, (1R,2S)-1-(5-chloro-2-pyrimidinyl)-N-(4-(2,6-dimethoxyphenyl)-5-(5-methyl-3-pyridinyl)-4H-1,2,4-triazol-3-yl)-1-ethoxy-2-propanesulfonamide] | – | – | 6.0% | No effect
14 | COc1cccc(OC)c1-n1c(NS(=O)(=O)[C@@H](C)[C@H](OC)c2ncc(Cl)cn2)nnc1-c1cccnc1 [Example 591.0, (1R,2S)-1-(5-chloro-2-pyrimidinyl)-N-(4-(2,6-dimethoxyphenyl)-5-(3-pyridinyl)-4H-1,2,4-triazol-3-yl)-1-methoxy-2-propanesulfonamide] | – | – | 8.0% | 0.0%
